Measured values as given in patent US8071768B2, “Alkylquinoline and alkylquinazoline kinase modulators” (Janssen Pharmaceutica, N.V., priority 2005, dated 2011).

Biological target: T1, TrkB (Homo sapiens, UniProt Q16620)
T1 construct: purchased Upstate 14-507M
Test: Trk B Fluorescence Polarization Kinase Assay
Assay type: biochemical
Conditions: uncertainty ±10%
Summary of the method: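 The TrkB kinase reaction (50 nM enzyme, 20 ug/mL poly Glu4Tyr, 150 uM ATP, 5 mM MgCl2, 1% DMSO) ran 30 minutes at room temperature and was stopped with EDTA. Phosphorylation was detected by fluorescence-polarization displacement of a fluorescein phosphopeptide from an anti-phosphotyrosine antibody. IC50 came from a variable-slope sigmoidal fit of triplicates.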

T1 sequence (Q16620 32-822): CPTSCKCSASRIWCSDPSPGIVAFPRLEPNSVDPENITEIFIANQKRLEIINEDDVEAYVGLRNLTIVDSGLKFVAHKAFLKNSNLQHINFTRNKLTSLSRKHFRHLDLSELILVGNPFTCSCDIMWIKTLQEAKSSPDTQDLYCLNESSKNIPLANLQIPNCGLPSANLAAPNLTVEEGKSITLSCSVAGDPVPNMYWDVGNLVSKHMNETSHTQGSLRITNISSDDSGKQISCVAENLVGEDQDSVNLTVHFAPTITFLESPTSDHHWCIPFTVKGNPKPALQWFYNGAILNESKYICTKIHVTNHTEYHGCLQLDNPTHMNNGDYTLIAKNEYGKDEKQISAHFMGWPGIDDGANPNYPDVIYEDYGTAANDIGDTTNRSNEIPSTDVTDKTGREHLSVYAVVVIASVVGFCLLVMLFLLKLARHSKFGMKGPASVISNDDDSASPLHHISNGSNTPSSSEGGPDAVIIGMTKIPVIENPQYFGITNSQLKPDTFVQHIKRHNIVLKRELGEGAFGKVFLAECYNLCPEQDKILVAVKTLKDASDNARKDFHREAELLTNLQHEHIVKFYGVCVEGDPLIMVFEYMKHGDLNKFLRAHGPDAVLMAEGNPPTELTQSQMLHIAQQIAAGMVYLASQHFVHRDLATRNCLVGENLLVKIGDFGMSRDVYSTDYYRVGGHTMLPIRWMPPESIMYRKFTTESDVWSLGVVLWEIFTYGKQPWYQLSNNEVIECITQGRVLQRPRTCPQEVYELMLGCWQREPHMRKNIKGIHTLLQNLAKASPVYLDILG

| Compound | IC50 |
| --- | --- |
| COc1cc2ncnc(C3CCN(C(=O)Nc4ccc(N(C)C)cc4)CC3)c2cc1OC [Compound 26, 4-(6,7-Dimethoxy-quinazolin-4-yl)-piperidine-1-carboxylic acid (4-dimethylamino-phenyl)-amide] | 9.4 µM |
| COc1cc2ncnc(C3CCN(C(=O)Nc4ccc(C5CCN(C(=O)OC(C)(C)C)CC5)cc4)CC3)c2cc1OC [Compound 63, 4-(4-{[4-(6,7-Dimethoxy-quinazolin-4-yl)-piperidine-1-carbonyl]-amino}-phenyl)-piperidine-1-carboxylic acid tert-butyl ester] | > 42 µM |
| COc1cc2ncnc(C3CCN(C(=O)Nc4ccc(-c5cncnc5)cc4)CC3)c2cc1OC [Compound 58, 4-(6,7-Dimethoxy-quinazolin-4-yl)-piperidine-1-carboxylic acid (4-pyrimidin-5-yl-phenyl)-amide] | > 42 µM |
| COc1cc2ncnc(C3CCN(C(=O)Nc4ccc5c(c4)CCO5)CC3)c2cc1OC [Compound 27, 4-(6,7-Dimethoxy-quinazolin-4-yl)-piperidine-1-carboxylic acid (2,3-dihydro-benzofuran-5-yl)-amide] | 9.4 µM |
| CS(=O)(=O)OCCCOc1ccc2c(C3CCN(C(=O)Nc4ccc(N5CCOCC5)cc4)CC3)ncnc2c1 [Compound 122, Methanesulfonic acid 3-{4-[1-(4-morpholin-4-yl-phenylcarbamoyl)-piperidin-4-yl]-quinazolin-7-yloxy}-propyl ester] | 18.9 µM |
| CCN(CC)CCCOc1ccc2c(C3CCN(C(=O)Nc4ccc(N5CCOCC5)cc4)CC3)ncnc2c1 [Compound 134, 4-[7-(3-Diethylamino-propoxy)-quinazolin-4-yl]-piperidine-1-carboxylic acid (4-morpholin-4-yl-phenyl)-amide] | > 42 µM |
| CC(C)Oc1ccc(NC(=O)N2CCC(c3ncnc4cc(NCCCN5CCN(C)CC5)ccc34)CC2)cc1 [Compound 102, 4-{7-[3-(4-Methyl-piperazin-1-yl)-propylamino]-quinazolin-4-yl}-piperidine-1-carboxylic acid (4-isopropoxy-phenyl)-amide] | 0.2 µM |
| CC(=O)N1CCN(c2ccc3c(C4CCN(C(=O)Nc5ccc(N6CCOCC6)cc5)CC4)ncnc3c2)CC1 [Compound 141, 4-[7-(4-Acetyl-piperazin-1-yl)-quinazolin-4-yl]-piperidine-1-carboxylic acid (4-morpholin-4-yl-phenyl)-amide] | 15 µM |
| CC(C)Oc1ccc(NC(=O)N2CCC(c3ncnc4ccc(N5CCN(C)CC5)cc34)CC2)cc1 [Compound 131, 4-[6-(4-Methyl-piperazin-1-yl)-quinazolin-4-yl]-piperidine-1-carboxylic acid (4-isopropoxy-phenyl)-amide] | 5.31 µM |
| COc1cc2ncnc(C3CCN(C(=O)Nc4ccccc4)CC3)c2cc1OC [Compound 45, 4-(6,7-Dimethoxy-quinazolin-4-yl)-piperidine-1-carboxylic acid phenylamide] | 6.5 µM |
| COc1cc2ncnc(C3CCN(C(=O)Nc4ccc(-c5ccco5)cc4)CC3)c2cc1OC [Compound 59, 4-(6,7-Dimethoxy-quinazolin-4-yl)-piperidine-1-carboxylic acid (4-furan-2-yl-phenyl)-amide] | 13.9 µM |
| CN1CCC(COc2ccc3c(C4CCN(C(=O)Nc5ccc(N6CCCC6)nc5)CC4)ncnc3c2)CC1 [Compound 99, 4-[7-(1-Methyl-piperidin-4-ylmethoxy)-quinazolin-4-yl]-piperidine-1-carboxylic acid (6-pyrrolidin-1-yl-pyridin-3-yl)-amide] | 6.41 µM |
| COc1ccc2c(C3CCN(C(=O)Nc4ccc(C(C)C)cc4)CC3)ncnc2c1 [Compound 32, 4-(7-Methoxy-quinazolin-4-yl)-piperidine-1-carboxylic acid (4-isopropyl-phenyl)-amide] | 0.5 µM |
| CN(C)C(=O)N1CCN(CCCOc2ccc3c(C4CCN(C(=O)Nc5ccc(N6CCOCC6)cc5)CC4)ncnc3c2)CC1 [Compound 120, 4-(3-{4-[1-(4-Morpholin-4-yl-phenylcarbamoyl)-piperidin-4-yl]-quinazolin-7-yloxy}-propyl)-piperazine-1-carboxylic acid dimethylamide] | 16.7 µM |
| CS(=O)(=O)NCCCOc1ccc2c(C3CCN(C(=O)Nc4ccc(N5CCOCC5)nc4)CC3)ncnc2c1 [Compound 87, 4-[7-(3-Methanesulfonylamino-propoxy)-quinazolin-4-yl]-piperidine-1-carboxylic acid (6-morpholin-4-yl-pyridin-3-yl)-amide] | 7.2 µM |
| CC(C)Oc1ccc(NC(=O)N2CCC(c3ncnc4cc(OCCCN5CCOCC5)ccc34)CC2)cc1 [Compound 38] | 0.1 µM |
| CCN1CCN(c2ccc3c(C4CCN(C(=O)Nc5ccc(N6CCOCC6)cc5)CC4)ncnc3c2)CC1 [Compound 136, 4-[7-(4-Ethyl-piperazin-1-yl)-quinazolin-4-yl]-piperidine-1-carboxylic acid (4-morpholin-4-yl-phenyl)-amide] | > 42 µM |

| Compound | IC50 |
| --- | --- |
| CC(C)Oc1ccc(NC(=O)N2CCC(c3ncnc4ccc(C#CCO)cc34)CC2)cc1 [Compound 12, 4-[6-(3-Hydroxy-prop-1-ynyl)-quinazolin-4-yl]-piperidine-1-carboxylic acid (4-isopropoxy-phenyl)-amide] | 0.5 µM |
| COc1cc2ncnc(C3CCN(C(=O)Nc4ccc(N5CCCC5=O)cc4)CC3)c2cc1OC [Compound 57, 4-(6,7-Dimethoxy-quinazolin-4-yl)-piperidine-1-carboxylic acid [4-(2-oxo-pyrrolidin-1-yl)-phenyl]-amide] | 24.9 µM |
| CN1CCC(COc2ccc3c(C4CCN(C(=O)Nc5ccc(N6CCOCC6)cc5)CC4)ncnc3c2)CC1 [Compound 94, 4-[7-(1-Methyl-piperidin-4-ylmethoxy)-quinazolin-4-yl]-piperidine-1-carboxylic acid (4-morpholin-4-yl-phenyl)-amide] | > 42 µM |
| CCN(CC)CCOc1ccc2c(C3CCN(C(=O)Nc4ccc(OC(C)C)cc4)CC3)ncnc2c1 [Compound 35, 4-[7-(2-Diethylamino-ethoxy)-quinazolin-4-yl)-piperidine-1-carboxylic acid (4-isopropoxy-phenyl)-amide] | 1.5 µM |
| COc1cc2ncnc(C3CCN(C(=O)Nc4ccc(I)cc4)CC3)c2cc1OC [Compound 2, 4-(6,7-Dimethoxy-quinazolin-4-yl)-piperidine-1-carboxylic acid (4-iodo-phenyl)-amide] | 6.2 µM |
| O=C(Nc1ccc(N2CCOCC2)cc1)N1CCC(c2ncnc3cc(N4CC[C@H](O)C4)ccc23)CC1 [Compound 128, 4-[7-(3-Hydroxy-pyrrolidin-1-yl)-quinazolin-4-yl]-piperidine-1-carboxylic acid (4-morpholin-4-yl-phenyl)-amide] | > 20 µM |
| CN1CCN(c2ccc3c(C4CCN(C(=O)Nc5ccc(N6CCOCC6)cc5)CC4)ncnc3c2)CC1 [Compound 135, 4-[7-(4-Methyl-piperazin-1-yl)-quinazolin-4-yl]-piperidine-1-carboxylic acid (4-morpholin-4-yl-phenyl)-amide] | > 42 µM |
| O=C(Nc1ccc(N2CCCC2)nc1)N1CCC(c2ncnc3cc(OCCN4CCOCC4)ccc23)CC1 [Compound 95, 4-[7-(2-Morpholin-4-yl-ethoxy)-quinazolin-4-yl]-piperidine-1-carboxylic acid (6-pyrrolidin-1-yl-pyridin-3-yl)-amide] | 3.4 µM |
| O=C1CCCN1CCCOc1ccc2c(C3CCN(C(=O)Nc4cnc(N5CCCC5)nc4)CC3)ncnc2c1 [Compound 90, 4-{7-[3-(2-Oxo-pyrrolidin-1-yl)-propoxy]-quinazolin-4-yl}-piperidine-1-carboxylic acid (2-pyrrolidin-1-yl-pyrimidin-5-yl)-amide] | 0.3 µM |
| COc1cc2ncnc(C3CCN(C(=O)Nc4ccc(Oc5ccccc5)cc4)CC3)c2cc1OC [Compound 47, 4-(6,7-Dimethoxy-quinazolin-4-yl)-piperidine-1-carboxylic acid (4-phenoxy-phenyl)-amide] | 4 µM |
| COc1cc2ncnc(C3CCN(C(=O)Nc4ccc(-c5ccc(Cl)nc5)cc4)CC3)c2cc1OC [Compound 60, 4-(6,7-Dimethoxy-quinazolin-4-yl)-piperidine-1-carboxylic acid [4-(6-chloro-pyridin-3-yl)-phenyl]-amide] | 8.1 µM |
| CN(C)CC(=O)N1CCN(c2ccc3c(C4CCN(C(=O)Nc5ccc(N6CCOCC6)cc5)CC4)ncnc3c2)CC1 [Compound 144, 4-{7-[4-(2-Dimethylamino-acetyl)-piperazin-1-yl]-quinazolin-4-yl}-piperidine-1-carboxylic acid (4-morpholin-4-yl-phenyl)-amide] | 14.2 µM |
| COc1cc2ncnc(C3CCN(C(=O)Nc4ccc(C(F)(F)F)cc4)CC3)c2cc1OC [Compound 46, 4-(6,7-Dimethoxy-quinazolin-4-yl)-piperidine-1-carboxylic acid (4-trifluoromethyl-phenyl)-amide] | 18.3 µM |
| O=C(NCCCOc1ccc2c(C3CCN(C(=O)Nc4ccc(N5CCOCC5)nc4)CC3)ncnc2c1)N1CCOCC1 [Compound 113, Morpholine-4-carboxylic acid (3-{4-[1-(6-morpholin-4-yl-pyridin-3-ylcarbamoyl)-piperidin-4-yl]-quinazolin-7-yloxy}-propyl)-amide] | 11.5 µM |
| COc1cc2ncnc(C3CCN(C(=O)Nc4ccc(C5=CCNCC5)cc4)CC3)c2cc1OC [Compound 62, 4-(6,7-Dimethoxy-quinazolin-4-yl)-piperidine-1-carboxylic acid [4-(1,2,3,6-tetrahydro-pyridin-4-yl)-phenyl]-amide] | > 10 µM |
| O=C(Nc1ccc(N2CCOCC2)cc1)N1CCC(c2ncnc3cc(OCCC4CCCCN4)ccc23)CC1 (stereo not shown) [Compound 98, 4-[7-(2-Piperidin-2-yl-ethoxy)-quinazolin-4-yl]-piperidine-1-carboxylic acid (4-morpholin-4-yl-phenyl)-amide] | > 20 µM |
| CC(C)Oc1ccc(NC(=O)N2CCC(c3ncnc4cc(N5CCN(C)CC5)ccc34)CC2)cc1 [Compound 103, 4-[7-(4-Methyl-piperazin-1-yl)-quinazolin-4-yl]-piperidine-1-carboxylic acid (4-isopropoxy-phenyl)-amide] | 0.2 µM |
